Consider 17 compounds from patent publication US7736624B2, “Methods and compositions for diagnostic and therapeutic targeting of COX-2” (priority 2006, dated 2010).

Where two headings read alike, the source gives them in different places.

One data set concerns the target T1, COX-1 (Mus musculus, UniProt P22437).
T1 sequence (P22437 1-602): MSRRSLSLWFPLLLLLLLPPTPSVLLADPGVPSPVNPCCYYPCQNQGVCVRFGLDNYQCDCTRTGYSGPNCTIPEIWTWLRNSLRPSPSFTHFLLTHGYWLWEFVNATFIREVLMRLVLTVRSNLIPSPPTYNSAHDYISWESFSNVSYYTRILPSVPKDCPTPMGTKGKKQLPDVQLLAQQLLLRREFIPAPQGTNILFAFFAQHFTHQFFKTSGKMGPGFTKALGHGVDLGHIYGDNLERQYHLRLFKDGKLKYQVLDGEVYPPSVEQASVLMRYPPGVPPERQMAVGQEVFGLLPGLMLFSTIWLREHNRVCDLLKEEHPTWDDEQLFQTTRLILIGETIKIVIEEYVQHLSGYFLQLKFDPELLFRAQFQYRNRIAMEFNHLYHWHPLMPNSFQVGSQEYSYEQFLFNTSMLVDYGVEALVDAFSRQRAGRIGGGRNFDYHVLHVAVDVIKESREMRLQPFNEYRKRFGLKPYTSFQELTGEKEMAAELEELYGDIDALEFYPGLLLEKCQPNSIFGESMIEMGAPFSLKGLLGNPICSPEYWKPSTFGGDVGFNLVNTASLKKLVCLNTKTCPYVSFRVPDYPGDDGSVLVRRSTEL
The experiment in a line: Macrophage assay (RAW264.7), COX-1. It counts as cell-based, murine. The note with it: Table 3; macrophage assay. An excerpt: Thus, NSAID derivatives that are identified as potentially useful in the methods described herein can be further tested using, for example, the RAW264.7 murine macrophage cell line. These cells are readily available (for example, from the American Type Culture Collection (ATCC), Manassas, Va., United States of America) and are easily cultured in large numbers. They normally express low levels of COX-1 and very low to undetectable levels of COX-2. Upon exposure to bacterial lipopolysaccharide (LPS), however, COX-2 levels increase dramatically over the ensuing 24 hour period, and the cells produce PGD2 and PGE2 from endogenous arachidonic acid stores (generally, ˜1 nmol/10^7 cells total PG formation). After LPS exposure, the addition of exogenous arachidonic acid results in the formation of additional PGD2 and PGE2 as a result of metabolism by the newly synthesized COX-2.
This system provides a number of approaches for testing the inhibitory potency of COX-2-selective ligands (e.g., inhibitors). In general, following LPS activation, cells can be treated for 30 minutes with the desired concentrations of candidate derivative(s) in DMSO. ^14C-arachidonic acid can be added, and the cells can be incubated for 15 minutes at 37° C. Product formation can be assessed following extraction and TLC separation of the culture medium. Alternatively, the effects of candidate derivatives on PG synthesis from endogenous arachidonic acid can be assessed by incubating cells with desired concentrations of candidate derivatives 30 minutes prior to LPS exposure. Following a 24-hour incubation, medium can be collected and extracted, and the amount of PGD2 and/or PGE2 can be assayed by gas chromatography-mass spectrometry, liquid chromatography-mass spectrometry, or ELISA.

The next data set is described as follows: Fluorescence in buffer. Particulars: excitation. The class given is physicochemical.
For another data set, the target named is T2, ovine COX-1 (Ovis aries, UniProt P05979).
T2 construct: can be purified from ovine seminal vesicles by standard procedures; from tissue; host or cells: ovine seminal vesicles
T2 sequence (P05979 25-600): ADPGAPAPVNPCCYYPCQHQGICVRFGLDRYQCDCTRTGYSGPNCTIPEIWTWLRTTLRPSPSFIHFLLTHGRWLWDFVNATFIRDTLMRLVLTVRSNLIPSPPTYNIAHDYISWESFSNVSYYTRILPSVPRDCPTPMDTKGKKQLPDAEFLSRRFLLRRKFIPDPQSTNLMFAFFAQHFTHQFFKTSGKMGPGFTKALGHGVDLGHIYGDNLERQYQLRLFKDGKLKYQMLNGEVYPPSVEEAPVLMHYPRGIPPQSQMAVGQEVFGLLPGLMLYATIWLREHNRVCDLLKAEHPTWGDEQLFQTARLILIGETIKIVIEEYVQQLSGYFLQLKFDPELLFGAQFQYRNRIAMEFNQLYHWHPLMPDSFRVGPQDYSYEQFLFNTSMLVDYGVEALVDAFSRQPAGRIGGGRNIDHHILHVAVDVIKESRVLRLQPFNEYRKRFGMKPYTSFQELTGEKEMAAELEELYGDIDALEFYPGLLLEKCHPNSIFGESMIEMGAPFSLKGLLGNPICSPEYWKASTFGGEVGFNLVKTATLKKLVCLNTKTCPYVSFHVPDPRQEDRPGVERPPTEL
As to the kind of experiment: IC50 determinations using purified enzymes (TLC assay), COX-1. The class given is biochemical. Particulars: assayed against purified enzymes. An excerpt:
(§1) Those skilled in the art will appreciate that an evaluation of the selectivity and efficacy of binding of the NSAID derivative to the COX-2 enzyme, e.g., after the derivative is synthesized, can be desirable. […] One example of an in vitro screening method takes advantage of the fact that both human and murine recombinant COX-2 can be expressed and isolated in pure form from an Sf9 cell expression system. […] Alternatively, membrane preparations from outdated human platelets can provide a source of human COX-1. […] The reaction is stopped by the addition of ethanol/methanol/1 M citrate, pH 4.0 (30:4:1). The extracted products are separated by thin layer chromatography (TLC), which allows quantitation of total product formation as well as assessment of product distribution. This assay is useful to define IC50 values for inhibition of either enzyme, and to determine time-dependency of inhibition. It also provides information concerning changes in products formed as a result of inhibition.
(§2) Reactions were terminated by solvent extraction in Et2O/CH3OH/1 M citrate, pH 4.0 (30:4:1). The phases were separated by centrifugation at 2000 g for 5 minutes and the organic phase was spotted on a 20×20 cm TLC plate (Lieselgel 60, EMD Chemicals, Inc., Gibbstown, N.J., United States of America). The plate was developed in EtOAc/CH2Cl2/glacial AcOH (75:25:1) at 4° C. Radiolabeled prostanoid products were quantitatively determined with a radioactivity scanner available from Bioscan, Inc. (Washington, D.C., United States of America). The percentage of total products observed at different concentrations of the presently disclosed compositions was divided by the percentage of products observed for protein samples preincubated for the same amount of time with DMSO.

The target of the next data set is T3, COX-2 (Homo sapiens, UniProt P35354).
T3 sequence (P35354 18-604): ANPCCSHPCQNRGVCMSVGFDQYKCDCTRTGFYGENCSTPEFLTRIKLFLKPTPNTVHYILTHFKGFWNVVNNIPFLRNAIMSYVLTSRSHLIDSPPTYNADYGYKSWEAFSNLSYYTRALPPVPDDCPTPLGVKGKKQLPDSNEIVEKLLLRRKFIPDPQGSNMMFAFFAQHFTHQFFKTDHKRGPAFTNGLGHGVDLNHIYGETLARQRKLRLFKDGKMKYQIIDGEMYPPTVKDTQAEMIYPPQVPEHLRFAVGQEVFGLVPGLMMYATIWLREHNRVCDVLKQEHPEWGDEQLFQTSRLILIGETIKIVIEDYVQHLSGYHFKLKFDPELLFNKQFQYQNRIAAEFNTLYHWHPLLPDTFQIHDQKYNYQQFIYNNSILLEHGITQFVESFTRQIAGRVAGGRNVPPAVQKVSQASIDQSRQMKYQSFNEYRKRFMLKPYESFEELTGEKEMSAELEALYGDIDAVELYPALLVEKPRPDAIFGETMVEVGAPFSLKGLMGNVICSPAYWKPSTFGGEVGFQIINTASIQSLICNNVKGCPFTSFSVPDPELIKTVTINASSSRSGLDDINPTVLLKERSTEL
As to the kind of experiment: IC50 determinations using purified enzymes (TLC assay), COX-2. The class given is biochemical. The arrangement: made in house; host or cells: Sf9 insect cells.
Excerpt: as §1, §2

The mark [1] stands for this setting: Table 3, assayed against purified enzymes, read-out: IC50 COX-2.
The mark [2] stands for this setting: Table 2, assayed against purified enzymes, read-out: IC50 COX-2.

For `CCN(CC)c1ccc2c(-c3ccc(S(=O)(=O)NCCOCCOCCOCCOCCC(=O)NCCCCNC(=O)Cc4c(C)n(C(=O)c5ccc(Cl)cc5)c5ccc(OC)cc45)cc3S(=O)(=O)[O-])c3ccc(=[N+](CC)CC)cc-3oc2c1` [Compound 27iii, 5-(N-(23-(1-(4-chlorobenoyl)-5-methoxy-2-methyl-1H-indol-3-yl)-15,22-dioxo-3,6,9,12-tetraoxa-16,21-diazatricosyl)sulfamoyl)-2-(6-(diethylamino)-3-(diethyliminio)-3H-xanthen-9-yl)benzenesulfonate], the values for the concentration for half-maximal inhibition (IC50) on COX-1, against ovine COX-1 (Table 3) and on COX-2 (setting [1]) were greater than 5 µM, greater than 25 µM and 0.16 µM, respectively. Moreover, the “Fluor. λex” value in “Fluorescence in buffer” is on record as 571 nm.

Regarding `CCN(CC)c1ccc2c(-c3ccc(S(=O)(=O)NCCOCCOCCOCCOCCC(=O)NCCNC(=O)CCc4cc(-c5ccc(C)cc5)n(-c5ccc(S(N)(=O)=O)cc5)n4)cc3S(=O)(=O)[O-])c3ccc(=[N+](CC)CC)cc-3oc2c1` [Compound 30f], the IC50 (in general, the midpoint of a concentration-inhibition curve) is greater than 5 µM at COX-1 and no less than 25 µM on COX-2 (setting [1]).

In the case of `COc1ccc2c(c1)c(CC(=O)NCCCCOC(=O)CCC(=O)O[C@H]1c3cc4c(cc3[C@@H](c3cc(OC)c(OC)c(OC)c3)[C@H]3C(=O)OC[C@@H]31)OCO4)c(C)n2C(=O)c1ccc(Cl)cc1` [Compound 27p], the IC50 was greater than 4 µM against ovine COX-1 (Table 1) and 0.147 µM on COX-2 (purified enzyme, read-out: COX-2 IC50).

Turning to `COc1ccc2c(c1)c(CC(=O)OCCN1CCN(CCCN3c4ccccc4Sc4ccc(Cl)cc43)CC1)c(C)n2C(=O)c1ccc(Cl)cc1` [Compound 27v], the IC50 was greater than 25 µM against ovine COX-1 (Table 2) and 0.387 µM at COX-2 (setting [2]).

`CCN(CC)c1ccc2c(-c3ccc(S(=O)(=O)NCCCCNC(=O)Cc4c(C)n(C(=O)c5ccc(Cl)cc5)c5ccc(OC)cc45)cc3S(=O)(=O)[O-])c3ccc(=[N+](CC)CC)cc-3oc2c1` [Compound 27lll]: the IC50 on ovine COX-1 (Table 3) and on COX-2 (setting [1]) was greater than 25 µM in each case.

`Cc1ccc(-c2cc(C(=O)O)nn2-c2ccc(S(N)(=O)=O)cc2)cc1` [Compound 30d]: the IC50 against ovine COX-1 (Table 2) and on COX-2 (setting [2]) was greater than 25 µM in each case.

`Cc1ccc(-c2cc(CCC(=O)NCCNC(=O)c3ccc(C(=O)[O-])c(C4=c5cc6c7c(c5Oc5c4cc4c8c5CCCN8CCC4)CCC[N+]=7CCC6)c3)nn2-c2ccc(S(N)(=O)=O)cc2)cc1` [Compound 30e]: the IC50 against ovine COX-1 (Table 3) and at COX-2 (setting [1]) was greater than 25 µM each time.

With `COc1ccc2c(c1)c(CC(=O)N1CCN(C(=O)c3ccc(C4=c5cc6c7c(c5Oc5c4cc4c8c5CCCN8CCC4)CCC[N+]=7CCC6)c(C(=O)[O-])c3)CC1)c(C)n2C(=O)c1ccc(Cl)cc1` [Compound 27hhh], the IC50 against ovine COX-1 (Table 3) amounted to 5.8 µM; at COX-2 (setting [1]), 1.3 µM.

Turning to `CCN1C(=CC=CC=CC2=[N+](CCCCS(=O)(=O)[O-])c3ccc4ccccc4c3C2(C)C)C(C)(C)c2cc(CC(=O)NCCCCNC(=O)Cc3c(C)n(C(=O)c4ccc(Cl)cc4)c4ccc(OC)cc34)ccc21` [Compound 27qqq], the IC50 at ovine COX-1 (Table 3) was greater than 25 µM; at COX-2 (setting [1]) it was 0.5 µM.

As to `COc1ccc2c(c1)c(CC(=O)NCCCCNC(=O)CCCCCNC(=O)c1ccc(-c3c4ccc(=O)cc-4oc4cc(O)ccc34)c(C(=O)O)c1)c(C)n2C(=O)c1ccc(Cl)cc1` [Compound 27oo], the IC50 on ovine COX-1 (Table 3) and on COX-2 (setting [1]) was greater than 25 µM throughout.

`CC[N+](CC)=c1ccc2nc3c(cc(NC(=O)CCc4cc(-c5ccc(C)cc5)n(-c5ccc(S(C)(=O)=O)cc5)n4)c4ccccc43)oc-2c1` [Compound 29g]: the IC50 against ovine COX-1 (Table 3) and on COX-2 (setting [1]) was greater than 25 µM in each case.

On to `COc1ccc2c(c1)c(CC(=O)NCCNC(=O)c1ccc(C3=c4cc5c6c(c4Oc4c3cc3c7c4CCCN7CCC3)CCC[N+]=6CCC5)c(C(=O)[O-])c1)c(C)n2C(=O)c1ccc(Cl)cc1` [Compound 27ggg], for which the IC50 against ovine COX-1 (Table 3) was determined as 0.5 µM; at COX-2 (setting [1]), 2.8 µM.

With `COC(=O)c1cc(-c2ccc(C)cc2)n(-c2ccc(S(C)(=O)=O)cc2)n1` [Compound 29b], the IC50 on ovine COX-1 (Table 2) is greater than 25 µM; at COX-2 (setting [2]) it was 2.8 µM.

For `COc1ccc2c(c1)c(CC(=O)NCCCN1CCN(CCCNC(=O)c3ccc(C(=O)[O-])c(C4=c5cc6c7c(c5Oc5c4cc4c8c5CCCN8CCC4)CCC[N+]=7CCC6)c3)CC1)c(C)n2C(=O)c1ccc(Cl)cc1` [Compound 27bbb], the IC50 at ovine COX-1 (Table 3) and at COX-2 (setting [1]) was greater than 25 µM throughout.

Regarding `Cc1ccc(-c2cc(C(=O)O)nn2-c2ccc(S(C)(=O)=O)cc2)cc1` [Compound 29d], the IC50 against ovine COX-1 (Table 2) and at COX-2 (setting [2]) was greater than 25 µM throughout.

For the compound `COc1ccc2c(c1)c(CCNC(=O)c1cc3ccccc3oc1=O)c(C)n2Cc1ccc(Br)cc1` [Compound 28b], the 50% inhibitory concentration (IC50) on ovine COX-1 (Table 3) and at COX-2 (setting [1]) was greater than 25 µM throughout.

In the case of `COc1ccc2c(c1)c(CC(=O)NCCCCCNC(=O)c1ccc(C(=O)[O-])c(C3=c4cc5c6c(c4Oc4c3cc3c7c4CCCN7CCC3)CCC[N+]=6CCC5)c1)c(C)n2C(=O)c1ccc(Cl)cc1` [Compound 27zz], the IC50 against ovine COX-1 (Table 3) and at COX-2 (setting [1]) was greater than 25 µM in each case.
